According to US12521564B2, “Method and apparatus for oncomagnetic treatment” (THE METHODIST HOSPITAL, priority 2020, dated 2026):
“Also recorded” adds a separate entry of the source.

Legend:
GBM cells [1] = settings: FCCP added after 2-3 OMF stimulation cycles
Protocol: In cultured GBM156 cells 10-minute stimulation/pause cycles were used to provoke a MPT response.
Oxygen electrode data collection: A thermostatically controlled (37° C.), water-jacketed, glass-walled, Clark-type O2 electrode was used throughout. […] The oncoscillator was attached to the end of a microphone stand and was held perpendicular to the outer glass wall of the electrode, so that there was an air gap of ≈5 mm between the two devices. There was a degree of crosstalk between to stirring bar of the O2-electrode chamber and the oncoscillator; this interaction manifests itself as jumps or drops in the apparent O2 concentrations at the beginning or the end of OMF stimulation. […] The stirrer velocity was therefore optimized to negate the interaction with the oncoscillator.
Tumor culture preparations: GBM and meningioma tumors were taken at the time of (first) excision and given the laboratory ID. They were washed in PBS, chopped with a scalpel and homogenized in a BeadBug™ homogenizer using 1.5 mm Zirconium beads, in an equal volume of PBS. […] The homogenates were grown in DMEM with 20% FBS, 1U GlutaMax™, sodium pyruvate (1 mM), penicillin (100 U/ml), and streptomycin (100 mg/ml). […]
Cells were grown to confluency, counted, harvested using trypsin, washed in ice-cold PBS and stored on ice at 8×10^9 cells/ml. O2 consumption of cells was measured in PBS, 10 mM glucose, 37° C. […]

GBM cells [2] = experiment: Surviving cell count after OMF stimulation in presence of drugs; type: cell-based, human
Source text: Histograms of the percentage of cells plotted against the normalized fluorescence intensity (ratio of intensity to the width of the forward scatter) measured by flow cytometry of H2DCF-stained GBM (U87) and normal astroglial (SVGp12) cells reveal nearly a two-fold increase in GBM cells due to OMF, but a ˜50% decrease in astroglial cells (FIG. 44). To test whether cell death is caused by the OMF-induced increase in ROS, a potent antioxidant Trolox was used to counteract it, while measuring the decrease in GBM cell count due to 4 h exposure to OMF. Conversely, it also was asked whether OMF potentiates the cell killing effect of a known ROS inducer, benzylamine. […] Magnetically influenced RPM plays a role in ubiquitously expressed flavoproteins called cryptochromes, which can also generate ROS when perturbed by magnetic fields. Cryptochrome agonists have been recently shown to inhibit cancer stem cell proliferation in GBM. This alternative possibility for generation of ROS by OMF was tested by counting surviving cells after two 4 h sessions of OMF stimulation over 24 h in the presence and absence of a cryptochrome antagonist, KS15. […] According to a certain setup, cells grown in 96-well cell culture plates were OMF stimulated, sham stimulated or unstimulated for 4 h inside humidified CO2 incubator. Paraformaldehyde (4% w/v in PBS) was used for fixation and DAPI was used for staining nuclei. […] Live and dead cell images were captured at 10× magnification on a Nikon Eclipse TE2000-E microscope and analyzed with NIS-Element program or a Carl Zeiss Axio Observer microscope with an onstage incubation chamber having a humidified 5% CO2 supply. […] […] To do this surviving cells were counted after two 4 h sessions of OMF stimulation over 24 h in the presence and absence of a cryptochrome antagonist, KS15.

[3] = system: high-grade meningioma cells; experiment: O2 consumption of primary high-grade meningioma cells under OMF stimulation cycles; type: cell-based, human; settings: cells pretreated with bongkrekic acid
Source text: FIG. 21 follows the format of FIG. 20, but this time primary high-grade meningioma cells were used, showing that OMF stimulation cycles cause MPT. In these cells stimulation causes a 75% drop in the electron flux, and after the end of the first cycle, the cells maintain only half their initial rate (FIG. 21A). During the second cycle of stimulation mitochondrial respiration is completely halted, and as soon as the stimulation stops there is a burst of O2 uptake ≥6 times the initial steady state level. This rate drops in a first order manner.
Oxygen electrode data collection: A thermostatically controlled (37° C.), water-jacketed, glass-walled, Clark-type O2 electrode was used throughout. […] There was a degree of crosstalk between to stirring bar of the O2-electrode chamber and the oncoscillator; this interaction manifests itself as jumps or drops in the apparent O2 concentrations at the beginning or the end of OMF stimulation.
The homogenates were grown in DMEM with 20% FBS, 1U GlutaMax™, sodium pyruvate (1 mM), penicillin (100 U/ml), and streptomycin ([…]).
O2 consumption of cells was measured in PBS, 10 mM glucose, 37° C. 2 μM carbonyl cyanide trifluoromethoxyphenylhydrazone.

[4] = system: rat liver mitochondria (RLM); experiment: O2 electrode trace of rat liver mitochondria metabolizing succinate under OMF stimulation; type: biochemical; settings: 5 μM bongkrekic acid, RLM metabolizing 5 mM succinate
Protocol: FIG. 18A illustrates an apparatus 1800 used to perform the procedures outlined above. The apparatus 1800 includes oncoscillator component and generates OMF by rotating an N52 permanent Neodymium rare earth magnet. The oncoscillator assembly is held by a microphone stand, placed next to the water jacketed O2 electrode with a 5 mm air gap, halting vibration transfer. The oncoscillator is positioned so that the center of 1 ml media chamber is exposed to a magnetic field of ≈8 mT. The rotation of the oncoscillator magnet has a small artifactual effect on the O2 electrode stirrer bar giving rise to an apparent drop or rise in O2 levels.
The effect of OMF on energized rat liver mitochondria (RLM) was examined. […] After the addition of succinate the slow ‘State 4’ consumption of O2 (≈10 e^−s^−1) that is typical of RLM oxidizing succinate in the absence of ADP (‘State 3’) or uncouplers is observed. In state 4 the electron flux from succinate dehydrogenase, the bc1 complex and cytochrome c oxidase is controlled by the presence of a large membrane potential (ΔΨ) and ΔpH, estimated to be […] and 11 mV, respectively, under similar conditions.
When OMF stimulation is initiated, respiration is completely halted for the whole 5-min OMF stimulation period. […] After this second stimulation regime ended, respiration restarted at the rate recorded prior to the stimulation cycle. […]

DIPG cells = experiment: O2 consumption of primary DIPG cells under OMF stimulation cycles; type: cell-based, human; settings: 5 μM bongkrekic acid
Source text: Before OMF stimulation the O2 consumption rate is ≈40 pMol O2 sec^−1 million cells^−1, similar to that seen in Chinese hamster ovary cells (100%). During the first five minutes of OMF stimulation cycle, respiration rate falls by a third, and during the first fifteen-minute pause this respiration rate remains at 65% of the initial rate. During the second stimulation cycle, respiration falls to only 45% of the control rate. When the cycle ends the rate rises to 58%, but over the 15-minute pause the flux slows down. During the third stimulation cycle, O2 consumption is held at half the initial rate, but when stimulation ceases a rapid increase in respiration is observed, which increases over the first 10 min and then begins to slow.
The large increase in mitochondrial electron flux that is observed at the end of the third cycle is consistent with a relatively homogenous population of cells, all undergoing MPT simultaneously. To test if this is the correct interpretation of the data, the experiment was rerun, but this time in the presence of 5 μM bongkrekic acid (FIG. 20B). Blocking the ANT with bongkrekic acid slows the steady state mitochondrial electron flux to 55% of that seen in its absence (both rates arc normalized to 100% in each panel for case of interpretation). […]
O2 consumption of cells was measured in PBS, 10 mM glucose, 37° C. […]

N#CC(C#N)=NNc1ccc(OC(F)(F)F)cc1 [FCCP, carbonyl cyanide-p-trifluoromethoxyphenylhydrazone]
O2 consumption after addition of FCCP (GBM cells [1]): did not lead to an increase in O2 consumption

CCO[C@H](Cc1cccc(/C(C)=N/OCc2ccc(Br)cc2)c1)C(=O)O [KS15]
effect on the decrease in cell count produced by OMF (GBM cells [2]; two 4 h sessions of OMF stimulation over 24 h, presence vs absence of KS15): significant partial attenuation

Cc1c(C)c2c(c(C)c1O)CCC(C)(C(=O)O)O2 (stereo not drawn) [Trolox]
counteraction of the decrease in GBM cell count due to OMF-induced ROS (GBM cells [2]; 4 h exposure to OMF, antioxidant Trolox): predictions are confirmed

NCc1ccccc1 [benzylamine]
potentiation by OMF of the cell killing effect of the ROS inducer (GBM cells [2]; 4 h exposure to OMF, benzylamine): predictions are confirmed

CO[C@H](C/C=C\C=C\CC/C=C/C[C@H](C)/C=C/C(=C\C(=O)O)CC(=O)O)/C(C)=C\C=C(/C)C(=O)O [bongkrekic acid]
OMF-induced increase in O2 uptake rate (MPT) [3]: abolished; also recorded: blocks the permeability
mitochondrial 'State 4' flux [4]: inhibits
oncoscillator-induced permeability transition ([4]; OMF stimulation): completely abolishes
steady state mitochondrial electron flux, % of that seen in absence of bongkrekic acid (DIPG cells; 2×10^6/ml DIPG cells in glucose supplemented PBS): 55%
OMF-induced permeability transition (increase in respiration rate) (DIPG cells; repeated OMF stimulation cycles): no increase in rate indicative of the permeability transition; also recorded: blocking the permeability
